Publication PMC13586173, “Synthetic cannabinoid receptor agonists inhibit the cardiac voltage-gated potassium channel hERG” (Acta Pharmacologica Sinica, 2026)
Read-outs that look alike come from different tables or passages of the source.

Columns and labels:
hERG = conditions: cited from earlier work
hERG (KV11.1) = hERG (KV11.1) (Homo sapiens, UniProt Q12809); test: Automated planar patch-clamp (APC, QPatch II 48), voltage-ladder protocol, CHO cells stably expressing human hERG; conditions: for hERG channel Efficacy (max reduction in Gmax) Gmin, marked *: * Greatest efficacy achieved with a concentration between 10 and 30 µM (no fit); for hERG channel Efficacy (max reduction in Gmax) Gmin, marked * / hERG channel Efficacy (max reduction in Gmax) Gmin: 1 = no reduction of Gmax; for effect on Gmax of hERG (in words): APC concentration-response, 1.11 to 30 µM; for hERG channel Efficacy (max reduction in Gmax) Gmin: 0 = complete reduction
From the text: To assess the effect of a large set of SCRAs on hERG (see SI Table I and SI Fig. S1 for a list of the 36 included SCRAs and corresponding structures), we used the automated planar patch-clamp (APC) technique on mammalian Chinese hamster ovary (CHO) cells stably expressing human hERG. […] We employed a voltage-ladder protocol to obtain information on SCRA effects on the channel’s voltage dependence of activation (V50) and maximal conductance (Gmax) (both determined from Boltzmann fits of the instantaneous tail currents; see Methods for details).
Stably expressing cell lines “CHO-hERG DUO” (here referred to as hERG; gene: KCNH2) and “CHO-KVLQT1/mink” (here referred to as KV7.1/KCNE1; gene: KCNQ1/KCNE1), (B’SYS GmBH, Witterswil, Switzerland) were used to study whole-cell K^+ currents on a QPatch II 48 APC system (Sophion Bioscience A/S, Ballerup, Denmark). Cell culture and passaging were performed in accordance with standard operating procedures. Cells were harvested in serum-free medium with Detachin^TM (Genlantis, CA, USA) immediately prior to experiments. For MPC on transient cell lines, CHO-K1 CCL-61 cells (ATCC, Manassas, VA, USA) were cultured in Ham’s F-12 medium supplemented with 10% fetal bovine serum (FBS) and 100 U/mL penicillin–100 µg/mL streptomycin (Gibco, Thermo Fisher Scientific, Waltham, MA, USA). Transfection was carried out using JetOPTIMUS® reagent (Polyplus, Strasbourg, France) according to the manufacturer’s protocol. Briefly, 80,000 cells were seeded per well in a 12-well plate and transfected with 300 ng of pcDNA3-GFP plasmid, 700 ng of pcDNA3-hERG plasmid with either the wild-type or mutant channels (S624A, S649A, or Y652A), and […] of JetOPTIMUS. After 8 h, cells were detached and reseeded at a density of 30,000 cells per well onto several poly-D-lysine-coated glass coverslips placed in a 12-well plate. For the CB1 receptor activity assay, the AequoScreen® recombinant Chinese hamster ovary (CHO) K1 cell line, stably expressing the human CB1 receptor (ES-110-A), was used (Revvity, Sollentuna, Sweden).
Automated patch-clamp recordings were performed at 22 °C. Freshly harvested cell suspensions (2–3 million cells/mL) were prepared for experiments by the QPatch II 48 automated cell preparation unit. Cells were centrifuged for 150 s at 150 × g and washed twice with the extracellular recording solution. Cells were handled by the integrated pipetting robot and added to the 48 experiment sites on the planar patch-clamp consumable QPlate. Each experiment site contained an individual pair of recording electrodes and a silicon/glass biochip embedded in the flow channels. Single-cell patch recordings (n = 1 is defined as one single-cell patch) and population patch recordings (up to 10 cells per well, n = 1 is defined as one population patch) were performed for hERG and for KV7.1/KCNE1, respectively. Cells were applied, positioned and sealed to the patch holes by a mild suction protocol; whole-cell access was then achieved by a stronger suction pulse.
The intracellular solution contained (in mM): 100 KCl, 4.3 CaCl2, 1.4 MgCl2, 25/10 KOH/EGTA, 24 KF, 10 HEPES, and 4 Mg-ATP (hERG) or 4 Na-ATP (KV7.1/KCNE1). […] The compounds were pre-diluted in DMSO, and the final concentration of DMSO (0.3%) was equal in all recording solutions to control for vehicle effects. The compounds made no contact with plastics following dilution in extracellular solution.
An overview of experimental conditions is provided in SI Table VII, Square voltage pulses in a voltage ladder protocol were used to study current/voltage (I(V)) relationships. Each voltage protocol was first run three times in the presence of vehicle (extracellular solution supplemented with 0.3% DMSO), the 3rd serving as the baseline. Voltage protocols were repeated in the presence of 4 cumulatively rising concentrations of test compound, followed by application of vehicle for recovery.

human CB1 receptor = target: T1, human CB1 receptor (Homo sapiens, UniProt P21554); test: AequoScreen intracellular calcium release assay, CHO-K1 cells stably expressing CB1; format: cell-based; conditions: for CB1 receptor Efficacy Emax: normalized to maximum of JWH-018
T1 construct: host or cells: CHO-K1 stably expressing CB1, apoaequorin and Gα16

KV7.1/KCNE1 = KV7.1/KCNE1 (Homo sapiens, UniProt P51787); test: Automated patch-clamp (APC, population patch), CHO cells stably expressing human KV7.1/KCNE1; format: cell-based; conditions: for KV7.1/KCNE1 channel Efficacy (max reduction in Gmax) Gmin, marked *: * Greatest efficacy achieved with a concentration between 10 and 30 µM (no fit); for KV7.1/KCNE1 channel Efficacy (max reduction in Gmax) Gmin: 1 = no reduction of Gmax, 0 = complete reduction
Method: Both hERG and KV7.1/KCNE1 contribute to cardiomyocyte repolarization (Fig. 1g). Inhibition of KV7.1/KCNE1 alone can be proarrhythmic. Moreover, under conditions with impaired hERG function, upregulation of KV7.1/KCNE1 has been proposed to partially compensate for the loss of hERG [38, 39]. […] To assess if SCRAs also affect KV7.1/KCNE1, we used mammalian CHO cells stably expressing human KV7.1/KCNE1. […] At 10 µM, 7 of the SCRAs caused a significant positive shift in V50 (Fig. 5e), with the largest shift induced by MDMB-[…] (ΔV50 = +10.3 ± 1.6 mV).
Automated patch-clamp recordings were performed at 22 °C.
For the KV7.1/KCNE1 voltage ladder protocol (SI Table VII) the solutions were present for 60 s before recording started. KV7.1/KCNE1 cells were kept at a holding voltage of −90 mV, with brief hyperpolarizing steps to −100 mV for 540 ms (to calculate ohmic leakage). […] The time between compound application and the first voltage protocol was 60 s. Time between sweeps was 15 s. The voltage ladder protocol was executed every 220 s.
For Gmax (rel.), N was set to –1. For ΔV50, N was set to 1.

[1] = CB1 receptor Potency EC50, normalized to median EC50 of JWH-018, n ≥ 3 (JWH-030 n = 2)
[2] = read-out: hERG channel Potency IC50 (Gmax reduction), APC, 22 °C, best fit
[3] = normalized to median EC50 of JWH-018, n ≥ 3 (JWH-030 n = 2), read-out: CB1 receptor Potency EC50

T1 sequence (P21554 whole entry): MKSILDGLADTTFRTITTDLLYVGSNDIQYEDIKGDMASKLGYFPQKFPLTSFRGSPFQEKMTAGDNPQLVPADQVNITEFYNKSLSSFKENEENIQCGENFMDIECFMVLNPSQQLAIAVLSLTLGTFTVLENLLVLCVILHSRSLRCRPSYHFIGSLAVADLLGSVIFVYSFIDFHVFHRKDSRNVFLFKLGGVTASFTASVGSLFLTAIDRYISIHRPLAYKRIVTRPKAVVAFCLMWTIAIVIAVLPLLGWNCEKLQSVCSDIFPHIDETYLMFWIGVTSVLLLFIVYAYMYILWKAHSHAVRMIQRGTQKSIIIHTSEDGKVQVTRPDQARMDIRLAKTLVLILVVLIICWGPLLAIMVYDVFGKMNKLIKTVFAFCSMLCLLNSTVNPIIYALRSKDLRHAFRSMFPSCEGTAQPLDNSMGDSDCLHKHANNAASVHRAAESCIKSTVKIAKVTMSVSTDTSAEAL
Chain of KV7.1/KCNE1 (P51787 whole entry): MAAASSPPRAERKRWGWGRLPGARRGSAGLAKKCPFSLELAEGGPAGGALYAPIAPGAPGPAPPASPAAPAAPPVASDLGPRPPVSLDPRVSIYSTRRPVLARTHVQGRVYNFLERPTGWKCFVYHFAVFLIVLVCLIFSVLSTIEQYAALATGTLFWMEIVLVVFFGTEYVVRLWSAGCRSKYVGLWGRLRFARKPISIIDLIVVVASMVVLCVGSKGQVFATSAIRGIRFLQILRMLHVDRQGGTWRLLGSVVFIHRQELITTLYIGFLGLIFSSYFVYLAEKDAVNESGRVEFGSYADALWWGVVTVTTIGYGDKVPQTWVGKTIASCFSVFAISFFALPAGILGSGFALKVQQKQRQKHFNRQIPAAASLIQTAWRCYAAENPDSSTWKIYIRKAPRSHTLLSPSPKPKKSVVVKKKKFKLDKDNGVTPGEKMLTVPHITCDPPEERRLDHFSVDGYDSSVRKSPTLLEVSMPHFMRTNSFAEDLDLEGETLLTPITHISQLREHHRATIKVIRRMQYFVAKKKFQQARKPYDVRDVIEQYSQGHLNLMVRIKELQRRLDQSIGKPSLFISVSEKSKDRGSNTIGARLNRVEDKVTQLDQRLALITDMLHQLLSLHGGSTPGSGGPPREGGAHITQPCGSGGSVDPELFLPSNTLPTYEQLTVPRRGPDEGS
Chain of hERG (KV11.1) (Q12809 whole entry): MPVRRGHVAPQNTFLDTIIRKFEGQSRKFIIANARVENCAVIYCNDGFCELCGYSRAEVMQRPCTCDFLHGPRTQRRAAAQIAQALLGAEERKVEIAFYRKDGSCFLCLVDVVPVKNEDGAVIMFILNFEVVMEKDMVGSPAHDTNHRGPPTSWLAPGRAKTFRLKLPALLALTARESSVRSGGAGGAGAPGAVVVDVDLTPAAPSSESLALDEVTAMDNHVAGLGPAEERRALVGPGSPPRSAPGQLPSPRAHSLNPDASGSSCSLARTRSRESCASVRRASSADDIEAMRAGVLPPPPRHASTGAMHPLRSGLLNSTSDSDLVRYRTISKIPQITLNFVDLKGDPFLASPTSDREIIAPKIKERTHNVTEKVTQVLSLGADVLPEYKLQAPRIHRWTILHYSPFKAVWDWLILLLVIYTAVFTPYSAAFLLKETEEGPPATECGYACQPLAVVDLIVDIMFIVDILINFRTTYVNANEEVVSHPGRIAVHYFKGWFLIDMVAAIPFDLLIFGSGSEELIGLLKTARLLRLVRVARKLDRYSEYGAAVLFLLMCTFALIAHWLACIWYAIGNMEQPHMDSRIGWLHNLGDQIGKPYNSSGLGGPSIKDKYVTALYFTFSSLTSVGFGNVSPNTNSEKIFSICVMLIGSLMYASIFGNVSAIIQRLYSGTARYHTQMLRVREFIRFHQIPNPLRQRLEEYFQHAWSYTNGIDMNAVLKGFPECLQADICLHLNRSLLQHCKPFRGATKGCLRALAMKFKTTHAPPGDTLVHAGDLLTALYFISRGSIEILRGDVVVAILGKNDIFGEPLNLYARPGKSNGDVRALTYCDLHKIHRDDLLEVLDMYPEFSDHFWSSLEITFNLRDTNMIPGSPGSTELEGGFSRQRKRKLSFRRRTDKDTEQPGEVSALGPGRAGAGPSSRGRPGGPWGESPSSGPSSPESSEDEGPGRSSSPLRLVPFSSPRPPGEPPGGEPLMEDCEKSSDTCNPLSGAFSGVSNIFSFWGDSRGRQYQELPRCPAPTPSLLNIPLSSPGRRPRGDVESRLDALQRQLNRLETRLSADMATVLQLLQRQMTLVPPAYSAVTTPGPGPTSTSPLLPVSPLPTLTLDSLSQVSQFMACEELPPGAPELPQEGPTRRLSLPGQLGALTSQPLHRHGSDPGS

| SMILES | EC50 (human CB1 receptor; [1]) | CB1 receptor Efficacy Emax (human CB1 receptor; n ≥ 3 (JWH-030 n = 2)) | KV7.1/KCNE1 channel Efficacy (max reduction in Gmax) Gmin, marked * (KV7.1/KCNE1) | hERG channel Efficacy (max reduction in Gmax) Gmin (hERG (KV11.1); best fit, APC, 22 °C) | IC50 (hERG (KV11.1); [2]) | EC50 (human CB1 receptor; [3]) | also measured |
| --- | --- | --- | --- | --- | --- | --- | --- |
| CC(C)(C)[C@H](NC(=O)Cc1cn(Cc2ccc(F)cc2)c2ccccc12)C(N)=O [ADB-FUBIATA] |  |  |  |  |  |  | hERG inhibition (in words) (hERG): inhibit hERG |
| CCCCCN1C(=O)/C(=N\NC(=O)c2ccccc2)c2ccccc21 [BZO-POXIZID] | 349 nM | 108 % JWH-018 | 0.83 |  |  |  | hERG channel Efficacy (max reduction in Gmax) Gmin, marked * (hERG (KV11.1)): 0.79; effect on Gmax of hERG (in words) (hERG (KV11.1)): non-inhibitor |
| N#CCCCCn1nc(C(=O)NCc2ccccc2)c2ccccc21 [Benzyl-4CN-BUTINACA] |  | 109 % JWH-018 | 0.73 | 0.00 | 17.3 µM | 408 nM |  |
| Cc1ccc(S(=O)(=O)n2nc(C(=O)NC(C)(C)c3ccccc3)c3ccccc32)cc1 [Cumyl-TsINACA] |  | 106 % JWH-018 | 1.07 |  |  |  | hERG channel Efficacy (max reduction in Gmax) Gmin, marked * (hERG (KV11.1)): 0.94; effect on Gmax of hERG (in words) (hERG (KV11.1)): non-inhibitor; EC50 (human CB1 receptor; read-out: CB1 receptor Potency EC50): 166 nM |
| CCCCCn1cc(C(=O)c2cccc3ccccc23)c2ccccc21 [JWH-018] | 35 nM | 100 % JWH-018 | 1.01 | 0.57 |  |  | IC50 (hERG (KV11.1)): 17.3 µM; EC50 (human CB1 receptor; median CB1 EC50 value, median from 139 independent experiments run over many years): 35 nM; EC50 (human CB1 receptor; variability of CB1 EC50 over time, range over 139 independent experiments): 13.7 to 51.9 nM |
| CCCCCn1cc(C(=O)c2ccc(C)c3ccccc23)c2ccccc21 [JWH-122] |  | 105 % JWH-018 | 0.87 | 0.73 | 9.4 µM | 8.29 nM |  |
| CCCCCn1cc(C(=O)c2ccc(CC)c3ccccc23)c2ccccc21 [JWH-210] |  | 110 % JWH-018 |  |  |  | 10.1 nM | hERG channel Efficacy (max reduction in Gmax) Gmin, marked * (hERG (KV11.1)): 0.89; KV7.1/KCNE1 channel Efficacy (max reduction in Gmax) Gmin (KV7.1/KCNE1; best fit): 0 |
| C=CCCCn1nc(C(=O)N[C@H](C(=O)OC)C(C)(C)C)c2ccccc21 [MDMB-4en-PINACA] |  | 109 % JWH-018 | 0.57 | 0.27 | 14.6 µM | 16.7 nM |  |
| CCCCn1nc(C(=O)NC(C(=O)OC)C(C)(C)C)c2cc(Br)ccc21 (stereo not shown) [MDMB-5'Br-BUTINACA] |  | 114 % JWH-018 | 0.60 | 0.67 |  |  | IC50 (hERG (KV11.1)): 6.2 µM; effect on KV7.1/KCNE1 (in words) (KV7.1/KCNE1; APC): both reduced Gmax and shifted V50 towards more positive voltages |
| COC(=O)[C@@H](NC(=O)c1n[nH]c2ccc(Br)cc12)C(C)(C)C [MDMB-5'Br-INACA] |  | 110 % JWH-018 | 0.74 | 0.57 | 25.3 µM | 849 nM |  |
| COC(=O)C(NC(=O)c1cn(CC2CCCCC2)c2ccccc12)C(C)(C)C (stereo not shown) [MDMB-CHMICA] | 3.07 nM | 107 % JWH-018 | 0.78 | 0.55 |  |  | IC50 (hERG (KV11.1)): 3.2 µM; effect on Gmax of hERG (in words) (hERG (KV11.1)): clear inhibiting Gmax effects on hERG |
| COC(=O)[C@@H](NC(=O)c1nn(Cc2ccc(F)cc2)c2ccccc12)C(C)(C)C [MDMB-FUBINACA] |  | 103 % JWH-018 | 0.59 | 0.25 | 10.2 µM | 0.795 nM | CB1 EC50 (in words) (human CB1 receptor): sub-nanomolar |
| COC(=O)C(NC(=O)c1nn(CC2CCCCC2)c2ccccc12)C(C)(C)C (stereo not shown) [MDMB-[…]] | 1.4 nM | 106 % JWH-018 | 0.52 | 0.60 |  |  | IC50 (hERG (KV11.1)): 12.4 µM; ΔV50 of KV7.1/KCNE1 (KV7.1/KCNE1; 10 µM): +10.3 ± 1.6 mV |
| COC(=O)[C@@H](NC(=O)c1cn(CC2CCCCC2)c2ccccc12)C(C)C [MMB-CHMICA] |  | 109 % JWH-018 |  | 0.75 | 2.6 µM | 8.76 nM | KV7.1/KCNE1 channel Efficacy (max reduction in Gmax) Gmin (KV7.1/KCNE1; best fit): 0.83 |
| O=C(c1cccc2ccccc12)c1nn(CCCCCF)c2ccccc12 [THJ-2201] |  | 92.8 % JWH-018 |  | 0.73 | 2.04 µM | 45.6 nM | effect on KV7.1/KCNE1 (in words) (KV7.1/KCNE1; APC): well-defined concentration–response relationships for both effects; IC50 (KV7.1/KCNE1; APC, best fit, read-out: KV7.1/KCNE1 channel Potency IC50 (Gmax reduction)): 4.7 µM; KV7.1/KCNE1 channel Efficacy (max reduction in Gmax) Gmin (KV7.1/KCNE1; best fit): 0.59 |
| CCCCCn1cc(C(=O)C2C(C)(C)C2(C)C)c2ccccc21 [UR-144] | 414 nM | 101 % JWH-018 | 0.92 |  |  |  | hERG channel Efficacy (max reduction in Gmax) Gmin, marked * (hERG (KV11.1)): 0.94; effect on Gmax of hERG (in words) (hERG (KV11.1)): non-inhibitor |
| CC1(C)C(C(=O)c2cn(CCCCCF)c3ccccc23)C1(C)C [XLR-11] | 260 nM | 105 % JWH-018 | 0.87 | 0.54 |  |  | IC50 (hERG (KV11.1)): 20.4 µM; effect on Gmax of hERG (in words) (hERG (KV11.1)): concentration-dependent inhibitory effects on Gmax |
